Measured values from paper PMC9167697 (Clinical cancer research : an official journal of the …, 2022).

Columns and labels:
[1] = Plasma pharmacokinetics of taminadenant in the phase I/Ib study; assay type: in vivo, human
[2] = system: patients with advanced NSCLC; experiment: Safety, tolerability, DLT and MTD in the phase I/Ib dose-escalation study; assay type: in vivo
[3] = system: advanced/metastatic NSCLC; experiment: Tumor response; assay type: in vivo, human
[4] = target: human A2AR; settings: cited from earlier work
[5] = system: A2AR; settings: cells transfected with A2AR; cited from earlier work
[6] = system: mouse xenograft models; settings: cited from earlier work
[7] = investigator-assessed, RECIST v1.1, n=25

For `Nc1nc(-n2cccn2)nc(-n2cccn2)c1Br` [Taminadenant], the Vd/F ([1]; human, in vivo) was 114 to 1520 L, the “apparent clearance (CL/F) upon repeated daily dosing compared with a single dose” value ([1]; human, in vivo) was “notably decreased” and the “time to maximum plasma drug concentration (Cmax)” value ([1]; human, in vivo, po) was 0.5 to 3 h. The “differences in taminadenant PK between the single-agent and combination group” value ([1]; large inter-individual variability in Cmax and AUC) was “no notable differences”, the “accumulation relative to a single dose” value ([1]; repeated daily doses, after 1 week) was “approximately 3 fold” and the “increase of systemic exposure (Cmax, AUC) with escalating doses” value ([1]; single and multiple doses from 80 mg to 640 mg) was “more-than-proportional”. For the same compound, the “dose delays or interruptions” value ([2]; human, in vivo) was 13 patients, the “patients who discontinued due to adverse events” value ([2]; human, in vivo) was 12.0% and the “patients with Grade 3/4 TRAEs” value ([2]; human, in vivo) was 16.0%. For the same compound, the “patients with treatment-related adverse events (TRAEs) of any grade” value ([2]; human, in vivo) was 84.0%, the “patients with treatment-related fatigue” value ([2]; human, in vivo) was 20.0% and the “patients with treatment-related gastroesophageal reflux disease” value ([2]; human, in vivo) was 24.0%. For the same compound, the “patients with treatment-related nausea” value ([2]; human, in vivo) was 44.0%, the “patients with treatment-related vomiting” value ([2]; human, in vivo) was 20.0% and the “dose delays due to TRAEs” value ([2]; in vivo) was “five”. For the same compound, the “patients reporting at least one adverse event, regardless of causality” value ([2]; in vivo) was “All patients”, the tolerability ([2]; in vivo) was “well tolerated” and the on-study deaths ([2]; n=25 per group, none related to study treatment) was 8.0%. The “maximum tolerated dose (MTD) of taminadenant” value ([2]; oral, combination with 400 mg spartalizumab Q4W) was 480 mg BID, the Disease control rate ([3]; CR + PR + SD, based on the number of evaluable patients) was 42.9 (21.8–66.0) % (95% CI) and the Overall response rate ([3]; CR + PR, based on the number of evaluable patients) was 9.5 (1.2–30.4) % (95% CI). For the same compound, the “median estimate of OS” value ([3]; Kaplan-Meier) was 9.7 months, the “median estimate of PFS” value ([3]; Kaplan-Meier, RECIST v1.1) was 3.9 months and the “Best overall response: Complete response” value [3, 7] was 1 (4.0) n (%). The “Best overall response: Non-evaluable” value [3, 7] was 4 (16.0) n (%), the “Best overall response: Partial response” value [3, 7] was 1 (4.0) n (%) and the “Best overall response: Progressive disease” value [3, 7] was 12 (48.0) n (%). For the same compound, the “Best overall response: Stable disease” value [3, 7] was 7 (28.0) n (%), the “patients who achieved disease control” value ([3]; of all 25 patients per group) was 36.0% and the “duration of complete response” value ([3]; one patient each, single agent 480 mg, combination 160 mg taminadenant) was 1.1 months. The “duration of disease control in a patient with stable disease” value ([3]; one patient, 160 mg, on treatment at data cut-off) was 36.7 months, the “in vitro binding affinity to human A2AR, as concentration” value [4] was 3.67 ng/mL and the Ki ([4]; read-out: in vitro binding affinity to human A2AR) was 12 nM. For the same compound, the “effect on cyclic adenosine monophosphate accumulation” value [5] was “inhibition of cyclic adenosine monophosphate accumulation” and the “effect on tumor growth” value [6] was “significantly reduced tumor growth”.
